Here are results for 18 compounds from US20240425480A1, “NOVEL PYRIDINE DERIVATIVE COMPOUND AS RON INHIBITOR” (LG CHEM, LTD., priority 2021, published 2024).

The target of assay [1] is RON (Homo sapiens, UniProt Q04912). Description: Inhibitory activity against RON, TR-FRET kinase assay. Conditions: TR-FRET enzyme assay. It counts as biochemical. As to the method: In order to measure the inhibitory activity of each of the compounds of Examples against RON, the IC50 of each of the compounds was measured using Time-resolved fluorescence energy transfer (TR-FRET).
Specifically, the compound was prepared to a concentration of 1 mM in 100% DMSO and was diluted 10 times in a stepwise manner through 3-fold dilution. The compound (2 ul) diluted in a stepwise manner was added to a 96-well-plate containing 48 ul of a 1× kinase reaction buffer (50 mM HEPES (pH 7.4), 0.01% Tween-20, 5 mM DTT, 0.5 mM Na3VO4, 2 mM EGTA, 10 mM MgCl2).
The RON protein was diluted to a concentration of 49.3 nM in a RON storage buffer (50 mM Tris-HCl (pH 7.5), 150 mM NaCl, 0.5 mM EDTA, 0.02% Triton X-100), and then diluted again to a concentration of 0.4 nM in a 1×kinase reaction buffer. As a substrate cocktail, a RON-specific substrate mixed solution (40 uM ULight-labeled Poly GT, 100 nM ATP) was prepared at a concentration 2 times the final reaction concentration.
(§1) Thereafter, a 384-well-plate was prepared, and 2.5 μl of each of the diluted compounds of Examples was added to a corresponding well of experimental group wells, and 2.5 μl of a 4% DMSO solution was dispensed into high control wells and low control wells.
(§2) Thereafter, 2.5 μL of 0.4 nM RON was dispensed into each of the high control wells and the experimental group wells, and 2.5 μL of the 1× kinase reaction buffer was added to the low control wells, and all the wells were centrifuged at room temperature for 40 seconds at 1,000 RPM, and then incubated at room temperature for 20-30 minutes. Then, 5 μL of the substrate cocktail (2×) was dispensed into each well, and all the wells were centrifuged at room temperature for 40 seconds at 1,000 RPM, and then incubated at room temperature for 60 minutes. Thereafter, 5 μL of 30 mM EDTA was added to each well to terminate the reaction, and all the wells were then incubated again at room temperature for 5 minutes. Thereafter, 5 μL of a 4×phosphotyrosine antibody (Perkin Elmer) containing europium was added to each well, and all the wells were then incubated at room temperature for 60 minutes. After the incubation, the 384-well-plate was read with the Vison plate reader. In this case, the excitation wavelength was 340 nm, and the emission wavelength was 620 nm and 665 nm. The IC50 value of each compound of Examples was derived using the GraphPd Prism7 program.

Assay [2] addresses cMET (Homo sapiens, UniProt P08581). As to the kind of experiment: Inhibitory activity against MET (cMET), TR-FRET kinase assay. The class given is biochemical. Conditions: TR-FRET enzyme assay. As to the method:
In addition, in order to measure the enzyme activity inhibition for cMET, the evaluation was performed in the same manner as the enzyme activity inhibition measurement experiment for RON.
Specifically, the compound was prepared to a concentration of 1 mM in 100% DMSO and was diluted 10 times in a stepwise manner through 3-fold dilution. The compound (2 ul) diluted in a stepwise manner was added to a 96-well-plate containing 48 ul of a 1×kinase reaction buffer (50 mM HEPES (pH 7.4), 0.05% BSA, 0.005% Tween-20, 1 mM DTT, 0.5 mM MnCl2, 20 mM MgCl2).
The cMET protein was diluted to a concentration of 263 nM in a cMET storage buffer (50 mM Tris-HCl (pH 7.5), 150 mM NaCl, 0.05% Brij35, 1 mM DTT, 10% Glycerol), and then diluted again to a concentration of 2 nM in a 1×kinase reaction buffer. As a substrate cocktail, a MET-specific substrate mixed solution (5 uM TK peptide, 10 mM ATP) was prepared at a concentration 2 times the final reaction concentration.
as §1
as §2, with “of 2” for “of 0.4”, “nM cMET” for “nM RON”, “of 90” for “of 30”, “The […]” for “The IC50”
A general note: In TR-FRET formats the signal depends on donor and acceptor labels being close together.

Each structure is given as a SMILES string. Some results are limits rather than exact numbers.

Sequence of cMET (P08581 25-1390): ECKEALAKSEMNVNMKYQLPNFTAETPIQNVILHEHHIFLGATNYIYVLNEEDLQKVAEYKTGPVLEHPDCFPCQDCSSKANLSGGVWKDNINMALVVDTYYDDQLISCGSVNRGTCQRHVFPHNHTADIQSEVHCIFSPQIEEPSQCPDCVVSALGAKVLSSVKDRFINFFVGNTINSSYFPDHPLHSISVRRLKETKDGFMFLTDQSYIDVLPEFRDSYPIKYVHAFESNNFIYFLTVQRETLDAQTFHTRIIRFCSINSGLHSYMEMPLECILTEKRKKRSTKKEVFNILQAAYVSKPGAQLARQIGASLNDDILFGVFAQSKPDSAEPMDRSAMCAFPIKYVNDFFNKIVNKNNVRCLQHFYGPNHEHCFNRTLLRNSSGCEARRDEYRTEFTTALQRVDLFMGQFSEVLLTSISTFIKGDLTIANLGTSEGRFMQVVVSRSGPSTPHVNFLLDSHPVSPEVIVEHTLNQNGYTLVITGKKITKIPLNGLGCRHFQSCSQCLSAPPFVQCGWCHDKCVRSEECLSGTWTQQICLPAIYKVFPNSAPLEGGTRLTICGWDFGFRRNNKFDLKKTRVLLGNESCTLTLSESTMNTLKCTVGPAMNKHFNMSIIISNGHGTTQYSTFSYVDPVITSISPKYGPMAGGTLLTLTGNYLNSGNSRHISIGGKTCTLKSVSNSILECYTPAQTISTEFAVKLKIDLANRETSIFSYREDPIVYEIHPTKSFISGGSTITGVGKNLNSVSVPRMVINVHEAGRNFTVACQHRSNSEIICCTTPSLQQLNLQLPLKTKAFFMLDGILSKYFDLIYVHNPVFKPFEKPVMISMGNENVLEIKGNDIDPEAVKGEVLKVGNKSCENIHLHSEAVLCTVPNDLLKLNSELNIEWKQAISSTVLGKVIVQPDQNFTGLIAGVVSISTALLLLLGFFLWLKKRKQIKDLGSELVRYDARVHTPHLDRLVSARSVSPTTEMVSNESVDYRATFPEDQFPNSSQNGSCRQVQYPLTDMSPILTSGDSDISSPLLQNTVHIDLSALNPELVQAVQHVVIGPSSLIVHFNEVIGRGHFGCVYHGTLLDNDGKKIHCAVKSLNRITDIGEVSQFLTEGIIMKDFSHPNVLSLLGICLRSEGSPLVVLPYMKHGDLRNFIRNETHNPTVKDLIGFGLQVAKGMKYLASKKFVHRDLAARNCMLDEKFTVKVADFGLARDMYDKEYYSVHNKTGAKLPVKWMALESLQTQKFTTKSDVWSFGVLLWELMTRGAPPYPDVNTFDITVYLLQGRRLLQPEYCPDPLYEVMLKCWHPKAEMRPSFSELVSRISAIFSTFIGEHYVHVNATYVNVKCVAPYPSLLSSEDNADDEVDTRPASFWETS
Sequence of RON (Q04912 25-1400, species assumed): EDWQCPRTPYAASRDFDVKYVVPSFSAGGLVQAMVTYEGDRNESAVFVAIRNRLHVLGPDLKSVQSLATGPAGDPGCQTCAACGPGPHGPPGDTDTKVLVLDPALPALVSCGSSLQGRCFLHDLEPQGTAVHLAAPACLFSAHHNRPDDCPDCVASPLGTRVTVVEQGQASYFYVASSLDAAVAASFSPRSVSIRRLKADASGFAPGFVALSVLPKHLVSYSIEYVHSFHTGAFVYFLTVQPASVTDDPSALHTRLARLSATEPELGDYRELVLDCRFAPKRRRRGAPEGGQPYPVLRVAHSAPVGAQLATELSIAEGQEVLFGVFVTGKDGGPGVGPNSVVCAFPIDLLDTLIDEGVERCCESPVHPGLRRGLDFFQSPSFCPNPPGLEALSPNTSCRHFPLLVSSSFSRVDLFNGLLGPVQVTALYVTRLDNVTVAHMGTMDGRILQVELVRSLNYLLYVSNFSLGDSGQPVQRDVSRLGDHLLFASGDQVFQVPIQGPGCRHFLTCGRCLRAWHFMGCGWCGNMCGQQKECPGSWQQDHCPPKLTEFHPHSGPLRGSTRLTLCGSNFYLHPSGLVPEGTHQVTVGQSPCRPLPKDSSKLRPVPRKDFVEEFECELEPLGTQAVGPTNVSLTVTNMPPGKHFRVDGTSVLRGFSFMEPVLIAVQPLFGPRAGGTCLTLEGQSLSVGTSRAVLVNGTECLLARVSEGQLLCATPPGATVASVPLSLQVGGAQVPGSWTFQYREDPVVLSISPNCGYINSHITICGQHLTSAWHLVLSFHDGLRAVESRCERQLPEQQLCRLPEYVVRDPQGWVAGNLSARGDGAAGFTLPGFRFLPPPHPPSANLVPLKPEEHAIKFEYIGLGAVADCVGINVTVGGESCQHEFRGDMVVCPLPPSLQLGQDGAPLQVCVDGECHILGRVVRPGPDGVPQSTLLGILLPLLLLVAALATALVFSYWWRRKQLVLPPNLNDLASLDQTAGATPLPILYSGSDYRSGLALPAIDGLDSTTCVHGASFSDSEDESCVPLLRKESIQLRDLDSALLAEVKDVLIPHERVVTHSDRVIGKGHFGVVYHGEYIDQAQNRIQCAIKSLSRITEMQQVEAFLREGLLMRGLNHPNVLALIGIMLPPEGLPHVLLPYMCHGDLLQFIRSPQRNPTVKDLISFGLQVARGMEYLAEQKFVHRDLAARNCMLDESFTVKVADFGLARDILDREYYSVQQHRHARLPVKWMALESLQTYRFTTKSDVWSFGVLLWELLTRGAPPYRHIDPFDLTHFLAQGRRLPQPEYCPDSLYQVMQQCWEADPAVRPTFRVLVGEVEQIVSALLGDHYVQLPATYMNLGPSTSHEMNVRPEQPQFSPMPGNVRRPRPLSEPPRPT

The term IC50 denotes the point on the concentration scale where inhibition reaches its midpoint. Read a low IC50 as inhibition by little substance. Regarding `Nc1cc(Oc2ccc(NC(=O)c3cnn(-c4ncccc4F)c3C(F)(F)F)cc2F)ccn1` [Example 31, N-(4-((2-aminopyridin-4-yl)oxy)-3-fluorophenyl)-1-(3-fluoropyridin-2-yl)-5-(trifluoromethyl)-1H-pyrazole-4-carboxamide], the 50% inhibitory concentration (IC50) was < 50 nM in assay [1] and > 5000 nM in assay [2].

Turning to `Nc1nccc(Oc2ccc(NC(=O)c3cnn(-c4ccccn4)c3C(F)(F)F)cc2F)c1Cl` [Example 2, N-(4-((2-amino-3-chloropyridin-4-yl)oxy)-3-fluorophenyl)-1-(pyridin-2-yl)-5-(trifluoromethyl)-1H-pyrazole-4-carboxamide], the IC50 in assay [1] is < 50 nM; in assay [2], 500 to 5000 nM.

As for `Nc1nccc(Oc2ccc(NC(=O)c3cnn(-c4ncccn4)c3C(F)(F)F)cc2F)c1Cl` [Example 21, N-(4-((2-amino-3-chloropyridin-4-yl)oxy)-3-fluorophenyl)-1-(pyrimidin-2-yl)-5-(trifluoromethyl)-1H-pyrazole-4-carboxamide], the half-inhibitory concentration (IC50) in assay [1] was < 50 nM; in assay [2], > 5000 nM.

Regarding `Nc1ncnc(Oc2ccc(NC(=O)c3cnn(-c4ncccc4F)c3C(F)(F)F)cc2F)c1Cl` [Example 45, N-[4-(6-amino-5-chloro-pyrimidin-4-yl)oxy-3-fluoro-phenyl]-1-(3-fluoro-2-pyridyl)-5-(trifluoromethyl)pyrazole-4-carboxamide], the results for the IC50 in assay [1] and in assay [2] were < 50 nM and 500 to 5000 nM, respectively.

On to `Nc1nccc(Oc2ccc(NC(=O)c3cnn(-c4ncccc4F)c3C(F)(F)F)cc2F)c1NC1CCCCC1` [Example 33, N-(4-((2-amino-3-(cyclohexylamino)pyridin-4-yl)oxy)-3-fluorophenyl)-1-(3-fluoropyridin-2-yl)-5-(trifluoromethyl)-1H-pyrazole-4-carboxamide], for which the IC50 in assay [1] is 50 to 500 nM; in assay [2], > 5000 nM.

On to `Nc1nccc(Oc2ccc(NC(=O)c3cnn(-c4nc(-c5ccccc5)cs4)c3C(F)(F)F)cc2F)c1Cl` [Example 3, N-(4-((2-amino-3-chloropyridin-4-yl)oxy)-3-fluorophenyl)-1-(4-phenylthiazol-2-yl)-5-(trifluoromethyl)-1H-pyrazole-4-carboxamide], for which the IC50 in assay [1] and in assay [2] was > 5000 nM each time.

In the case of `Nc1ncnc(Oc2ccc(NC(=O)c3cnn(-c4ccncc4)c3C(F)(F)F)cc2F)c1Cl` [Example 57, N-[4-(6-amino-5-chloro-pyrimidin-4-yl)oxy-3-fluoro-phenyl]-1-(4-pyridyl)-5-(trifluoromethyl)pyrazole-4-carboxamide], the IC50 in assay [1] is 500 to 5000 nM; in assay [2], > 5000 nM.

In the case of `Cn1cc(-n2ncc(C(=O)Nc3ccc(Oc4ccnc(N)c4Cl)c(F)c3)c2C(F)(F)F)cn1` [Example 39, N-(4-((2-amino-3-chloropyridin-4-yl)oxy)-3-fluorophenyl)-1′-methyl-5-(trifluoromethyl)-1′H-[1,4′-bipyrazole]-4-carboxamide], the results for the IC50 in assay [1] and in assay [2] were 50 to 500 nM and > 5000 nM, respectively.

`Cc1ccnc(-n2ncc(C(=O)Nc3ccc(Oc4ncnc(N)c4Cl)c(F)c3)c2C(F)(F)F)c1` [Example 47, N-[4-(6-amino-5-chloro-pyrimidin-4-yl)oxy-3-fluoro-phenyl]-1-(4-methyl-2-pyridyl)-5-(trifluoromethyl)pyrazole-4-carboxamide]: the IC50 in assay [1] is 50 to 500 nM; in assay [2] it was > 5000 nM.

Turning to `CCc1c(C(=O)Nc2ccc(Oc3ccnc(N)c3Cl)c(F)c2)cnn1-c1ncccc1Cl` [Example 36, N-(4-((2-amino-3-chloropyridin-4-yl)oxy)-3-fluorophenyl)-1-(3-chloropyridin-2-yl)-5-ethyl-1H-pyrazole-4-carboxamide], the IC50 in assay [1] lay within 50 to 500 nM; in assay [2], 500 to 5000 nM.

For the compound `Nc1nccc(Oc2ccc(NC(=O)c3cnn(-c4cncnc4)c3C(F)(F)F)cc2F)c1Cl` [Example 6, N-(4-((2-amino-3-chloropyridin-4-yl)oxy)-3-fluorophenyl)-1-(pyrimidin-5-yl)-5-(trifluoromethyl)-1H-pyrazole-4-carboxamide], the results for the IC50 in assay [1] and in assay [2] were 50 to 500 nM and > 5000 nM, respectively.

As for `Nc1ncnc(Oc2ccc(NC(=O)c3cnn(-c4ncccc4C(F)(F)F)c3C(F)(F)F)cc2F)c1Cl` [Example 53, N-[4-(6-amino-5-chloro-pyrimidin-4-yl)oxy-3-fluoro-phenyl]-5-(trifluoromethyl)-1-[3-(trifluoromethyl)-2-pyridyl]pyrazole-4-carboxamide], the IC50 in assay [1] lay within 50 to 500 nM; in assay [2] it was 500 to 5000 nM.

Turning to `Cc1ccnc(-n2ncc(C(=O)Nc3ccc(Oc4ncnc(N)c4Cl)c(F)c3)c2C(F)(F)F)n1` [Example 62, N-[4-(6-amino-5-chloro-pyrimidin-4-yl)oxy-3-fluoro-phenyl]-1-(4-methylpyrimidin-2-yl)-5-(trifluoromethyl)pyrazole-4-carboxamide], the IC50 was 50 to 500 nM in assay [1] and > 5000 nM in assay [2].

Consider `Nc1nccc(Oc2ccc(NC(=O)c3cnn(-c4ccc(F)cn4)c3C(F)(F)F)cc2F)c1Cl` [Example 13, N-(4-((2-amino-3-chloropyridin-4-yl)oxy)-3-fluorophenyl)-1-(5-fluoropyridin-2-yl)-5-(trifluoromethyl)-1H-pyrazole-4-carboxamide], for which the IC50 in assay [1] was 50 to 500 nM; in assay [2], > 5000 nM.

Take `Nc1ncnc(Oc2ccc(NC(=O)c3cnn(-c4cccnc4)c3C(F)(F)F)cc2F)c1Cl` [Example 56, N-[4-(6-amino-5-chloro-pyrimidin-4-yl)oxy-3-fluoro-phenyl]-1-(3-pyridyl)-5-(trifluoromethyl)pyrazole-4-carboxamide]: the IC50 was 50 to 500 nM in assay [1] and > 5000 nM in assay [2].

For the compound `Cc1ccc(-n2ncc(C(=O)Nc3ccc(Oc4ccnc(N)c4Cl)c(F)c3)c2C(F)(F)F)nc1` [Example 16, N-(4-((2-amino-3-chloropyridin-4-yl)oxy)-3-fluorophenyl)-1-(5-methylpyridin-2-yl)-5-(trifluoromethyl)-1H-pyrazole-4-carboxamide], the IC50 is 50 to 500 nM in assay [1] and > 5000 nM in assay [2].

In the case of `Nc1nccc(Oc2ccc(NC(=O)c3cnn(-c4cc(Cl)ccn4)c3C(F)(F)F)cc2F)c1Cl` [Example 14, N-(4-((2-amino-3-chloropyridin-4-yl)oxy)-3-fluorophenyl)-1-(4-chloropyridin-2-yl)-5-(trifluoromethyl)-1H-pyrazole-4-carboxamide], the IC50 in assay [1] is 50 to 500 nM; in assay [2] it was > 5000 nM.

Consider `Cn1cc(-n2ncc(C(=O)Nc3ccc(Oc4ncnc(N)c4Cl)c(F)c3)c2C(F)(F)F)cn1` [Example 42, N-[4-(6-amino-5-chloro-pyrimidin-4-yl)oxy-3-fluoro-phenyl]-1-(1-methylpyrazol-4-yl)-5-(trifluoromethyl)pyrazole-4-carboxamide], for which the IC50 was 500 to 5000 nM in assay [1] and > 5000 nM in assay [2].
